Measurements as given in ChEMBL document CHEMBL1201862, “PubChem BioAssay data set” (2004).
Activity calls are given as the source filed them.

Experiments:
[1] = molecular target: Cytochrome P450 2D6 (Homo sapiens, UniProt P10635);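 note: CYP2D6 member of a cytochrome P450 panel assay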
[2] = molecular target: Glucose-6-phosphate 1-dehydrogenase (Homo sapiens, UniProt P11413); assay: human G6PD enzyme inhibitors, dose response, selectivity assay for P. falciparum G6PD inhibitor project, biochemical, fluorescence (AID 504792); assay type: functional
[3] = molecular target: Ras and Rab interactor 1/Tyrosine-protein kinase ABL1 (Homo sapiens, UniProt P00519+Q13671); assay type: functional;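 note: biochemical TR-FRET dose-response test measuring inhibition of binding between Rin1 and Abl proteins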
[4] = molecular target: Genome polyprotein (dengue virus type 2, UniProt P29990); assay: Dengue-2 NS5 methyltransferase inhibitors, primary screen, biochemical, confirmation dose response (AID 588689); assay type: functional
[5] = molecular target: Beta-2 adrenergic receptor (Homo sapiens, UniProt P07550); assay: beta2AR agonists driving receptor internalization, dose response, cell-based, FAP fluorogen, flow cytometry, cherry pick 1 (AID 588763); assay type: functional
[6] = molecular target: T1, Endoribonuclease toxin MazF (Escherichia coli K-12, UniProt P0AE70); assay: MazF toxin RNase activators, dose response, biochemical, fluorescence, single-stranded RNA substrate, uHTS hits (AID 588481); assay type: functional
T1 sequence (P0AE70 whole entry): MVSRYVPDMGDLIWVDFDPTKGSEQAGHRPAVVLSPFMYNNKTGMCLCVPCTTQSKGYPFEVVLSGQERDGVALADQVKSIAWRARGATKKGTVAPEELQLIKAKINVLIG

[7] = molecular target: T1, Endoribonuclease toxin MazF; assay: fluorescent RNA oligo signal without MazF, dose response, counter-screen for MazEF activator project, biochemical, fluorescence, single-stranded RNase substrate (AID 588502); assay type: functional
[8] = molecular target: T2, Zinc finger protein mex-5 (Caenorhabditis elegans, UniProt Q9XUB2); assay: MEX-5/TCR-2 RNA interaction inhibitors, dose response, biochemical, C. elegans, fluorescence polarization (AID 1960)
T2 sequence (Q9XUB2 whole entry): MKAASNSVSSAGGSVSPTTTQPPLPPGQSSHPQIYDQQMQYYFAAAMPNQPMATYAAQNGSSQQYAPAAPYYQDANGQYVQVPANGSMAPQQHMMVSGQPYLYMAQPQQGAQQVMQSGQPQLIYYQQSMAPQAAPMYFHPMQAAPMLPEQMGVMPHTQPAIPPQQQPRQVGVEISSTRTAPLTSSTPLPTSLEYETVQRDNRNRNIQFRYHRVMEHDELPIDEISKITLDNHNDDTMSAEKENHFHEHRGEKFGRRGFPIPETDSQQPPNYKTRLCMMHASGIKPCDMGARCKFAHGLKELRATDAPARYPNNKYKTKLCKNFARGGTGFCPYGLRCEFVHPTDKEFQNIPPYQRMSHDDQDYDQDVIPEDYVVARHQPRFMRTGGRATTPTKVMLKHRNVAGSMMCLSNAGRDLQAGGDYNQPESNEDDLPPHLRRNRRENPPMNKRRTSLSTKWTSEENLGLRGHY

[9] = molecular target: T3, RNA-binding protein pos-1 (Caenorhabditis elegans, UniProt G5EF15); assay: inhibitors of POS-1/mex-3 RNA binding, dose response, biochemical, fluorescence polarization (AID 1964);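 note: purified POS-1 fused to maltose binding protein made in E. coli; potency of compounds blocking POS-1 binding to fluorescent RNA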
T3 sequence (G5EF15 whole entry): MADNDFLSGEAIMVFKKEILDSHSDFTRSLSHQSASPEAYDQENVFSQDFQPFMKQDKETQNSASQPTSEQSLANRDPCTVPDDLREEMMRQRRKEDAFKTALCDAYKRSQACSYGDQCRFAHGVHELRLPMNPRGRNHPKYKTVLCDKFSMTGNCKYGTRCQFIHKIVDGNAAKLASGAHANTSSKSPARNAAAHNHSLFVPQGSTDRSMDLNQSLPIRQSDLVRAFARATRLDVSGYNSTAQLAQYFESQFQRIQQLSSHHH

[10] = molecular target: T4, Corticotropin-releasing factor receptor 2/Corticotropin-releasing factor-binding protein (Homo sapiens, UniProt P24387+Q13324); assay: activators of CRF receptor 2 with binding protein – uHTS hits, confirmation (AID 602473); assay type: functional; conditions: read-out: EC50_Mean
T4 sequence (Q13324 whole entry): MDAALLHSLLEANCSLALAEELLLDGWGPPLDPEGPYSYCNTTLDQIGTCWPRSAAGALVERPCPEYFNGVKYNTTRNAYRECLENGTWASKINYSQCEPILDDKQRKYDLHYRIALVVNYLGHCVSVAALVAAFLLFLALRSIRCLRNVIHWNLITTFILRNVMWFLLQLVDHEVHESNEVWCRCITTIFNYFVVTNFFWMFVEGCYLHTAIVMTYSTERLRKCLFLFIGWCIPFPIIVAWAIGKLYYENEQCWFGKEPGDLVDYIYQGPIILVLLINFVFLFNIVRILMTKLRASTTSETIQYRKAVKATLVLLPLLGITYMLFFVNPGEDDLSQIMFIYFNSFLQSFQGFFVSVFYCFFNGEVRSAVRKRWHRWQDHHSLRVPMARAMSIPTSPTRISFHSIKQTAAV
T4 sequence (P24387 whole entry): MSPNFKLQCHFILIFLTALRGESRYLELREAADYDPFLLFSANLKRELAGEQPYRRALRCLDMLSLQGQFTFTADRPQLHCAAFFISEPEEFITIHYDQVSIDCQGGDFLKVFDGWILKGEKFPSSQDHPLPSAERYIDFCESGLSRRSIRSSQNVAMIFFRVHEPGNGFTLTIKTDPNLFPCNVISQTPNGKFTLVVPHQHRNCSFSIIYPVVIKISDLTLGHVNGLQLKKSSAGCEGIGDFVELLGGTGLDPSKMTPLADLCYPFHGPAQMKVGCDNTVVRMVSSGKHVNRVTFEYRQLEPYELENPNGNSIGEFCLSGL

[11] = molecular target: Cytochrome P450 3A4 (Homo sapiens, UniProt P08684);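 note: CYP3A4 tested as one member of a cytochrome P450 panel screen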
[12] = molecular target: Cytochrome P450 2C9 (Homo sapiens, UniProt P11712)
[13] = ARNT/TACC3 interaction disruptors, potency, confirmation, biochemical, AlphaScreen, cherry-picked samples (AID 651703); assay type: functional, Homo sapiens;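 note: His-tagged ARNT PAS-B domain paired with GST-TACC3 E629A dimer coactivator fragment; potency of inhibitors that break up the complex and lower AlphaScreen signal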
[14] = molecular target: Paired box protein Pax-8 (Homo sapiens, UniProt Q06710); assay: inhibitors of PAX8-driven TPO luciferase reporter, dose response, RMG-I cells, cherry-pick (AID 687027); assay type: functional, cell-based;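 note: luciferase reporter driven by Pax8 target thyroperoxidase promoter measured by SteadyGlo luminescence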
[15] = molecular target: Cytochrome P450 2C19 (Homo sapiens, UniProt P33261); assay: Cytochrome panel assay with activity outcomes. Panel member name: p450-cyp2c19 Compounds with AC50 equal or less than 10 uM are considered active; assay type: functional
[16] = molecular target: Nucleotide-binding oligomerization domain-containing protein 2 (Homo sapiens, UniProt Q9HC29); assay: NOD2 signaling inhibitors, cell-based, luminescence, uHTS, HEK293 (AID 1566); assay type: functional
[17] = tested on: HEK293; assay: NOD2 signaling inhibitors in MDP-stimulated cells, cell-based, uHTS, luminescence (AID 2001); assay type: functional; conditions: Homo sapiens
[18] = inhibitors of intracellular T. cruzi replication, confirmation, NIH3T3 host cells, beta-gal luminescence (AID 2044); assay type: functional, cell-based;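 note: intracellular parasites grown in NIH/3T3 mouse fibroblasts as host cells; luminescent beta-galactosidase reporter signal from transgenic T. cruzi replicating inside host cells; inhibitors lower the luminescence signal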
[19] = tested on: HEK293; assay: NOD1 signaling inhibitors, primary screen, cell-based, luminescence, uHTS (AID 1578); assay type: functional; conditions: Homo sapiens
[20] = tested on: HEK293; assay: cells; assay type: functional, cell-based; conditions: Homo sapiens
[21] = tested on: HEK293; assay: cells; assay type: functional, cell-based; conditions: Homo sapiens; remark: listed apart in the source
[22] = tested on: HEK293; assay: cells; assay type: functional, cell-based; conditions: Homo sapiens; remark: listed apart in the source
[23] = cytotoxicity toward NIH3T3 fibroblasts, dose response, counter-screen, cell-based, ATP luminescence, mouse fibroblasts (AID 2010); assay type: functional;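 note: cells exposed to compound for about 90 hours before reading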
[24] = molecular target: T5, Fatty acid synthase (Homo sapiens, UniProt P49327); assay: FAS thioesterase domain inhibitors, dose response, biochemical, endpoint fluorescence intensity, uHTS hits (AID 624327); assay type: functional;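 note: fluorescence from hydrolysis of an O-methyl fluorescein acyl ester substrate by the enzyme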
[25] = molecular target: T5, Fatty acid synthase; assay: FAS thioesterase domain inhibitors, dose response, biochemical, kinetic fluorescence intensity (AID 624326); assay type: functional;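 note: rate of fluorescence rise from hydrolysis of a fluorogenic O-methyl fluorescein ester substrate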

Cytochrome P450 2D6, sequence (P10635 whole entry): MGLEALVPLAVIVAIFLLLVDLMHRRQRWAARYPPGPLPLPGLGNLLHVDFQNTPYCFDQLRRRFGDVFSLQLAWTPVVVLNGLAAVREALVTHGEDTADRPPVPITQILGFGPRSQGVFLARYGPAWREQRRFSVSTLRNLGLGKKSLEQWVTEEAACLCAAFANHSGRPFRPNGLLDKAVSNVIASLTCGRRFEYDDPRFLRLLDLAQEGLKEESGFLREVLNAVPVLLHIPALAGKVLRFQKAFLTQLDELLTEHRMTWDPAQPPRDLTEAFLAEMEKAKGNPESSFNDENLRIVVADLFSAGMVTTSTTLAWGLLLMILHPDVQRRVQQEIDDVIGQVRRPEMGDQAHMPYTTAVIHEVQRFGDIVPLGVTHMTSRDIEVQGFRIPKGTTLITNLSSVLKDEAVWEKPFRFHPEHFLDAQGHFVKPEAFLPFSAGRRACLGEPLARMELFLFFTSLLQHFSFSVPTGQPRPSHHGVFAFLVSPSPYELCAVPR
Glucose-6-phosphate 1-dehydrogenase, sequence (P11413 whole entry): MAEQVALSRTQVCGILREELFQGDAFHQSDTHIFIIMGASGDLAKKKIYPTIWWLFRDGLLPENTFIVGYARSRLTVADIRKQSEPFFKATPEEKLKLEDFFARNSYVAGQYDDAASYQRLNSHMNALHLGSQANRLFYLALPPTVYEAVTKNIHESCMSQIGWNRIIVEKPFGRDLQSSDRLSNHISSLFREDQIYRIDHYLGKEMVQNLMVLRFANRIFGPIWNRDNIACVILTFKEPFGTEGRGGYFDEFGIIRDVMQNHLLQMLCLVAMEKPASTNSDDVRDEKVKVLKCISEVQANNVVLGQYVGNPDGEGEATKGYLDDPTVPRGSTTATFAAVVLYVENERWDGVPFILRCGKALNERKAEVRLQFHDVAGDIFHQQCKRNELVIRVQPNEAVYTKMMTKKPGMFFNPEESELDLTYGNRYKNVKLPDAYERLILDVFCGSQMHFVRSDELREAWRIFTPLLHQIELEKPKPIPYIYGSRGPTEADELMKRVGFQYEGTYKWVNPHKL
Ras and Rab interactor 1/Tyrosine-protein kinase ABL1, sequence (P00519 whole entry): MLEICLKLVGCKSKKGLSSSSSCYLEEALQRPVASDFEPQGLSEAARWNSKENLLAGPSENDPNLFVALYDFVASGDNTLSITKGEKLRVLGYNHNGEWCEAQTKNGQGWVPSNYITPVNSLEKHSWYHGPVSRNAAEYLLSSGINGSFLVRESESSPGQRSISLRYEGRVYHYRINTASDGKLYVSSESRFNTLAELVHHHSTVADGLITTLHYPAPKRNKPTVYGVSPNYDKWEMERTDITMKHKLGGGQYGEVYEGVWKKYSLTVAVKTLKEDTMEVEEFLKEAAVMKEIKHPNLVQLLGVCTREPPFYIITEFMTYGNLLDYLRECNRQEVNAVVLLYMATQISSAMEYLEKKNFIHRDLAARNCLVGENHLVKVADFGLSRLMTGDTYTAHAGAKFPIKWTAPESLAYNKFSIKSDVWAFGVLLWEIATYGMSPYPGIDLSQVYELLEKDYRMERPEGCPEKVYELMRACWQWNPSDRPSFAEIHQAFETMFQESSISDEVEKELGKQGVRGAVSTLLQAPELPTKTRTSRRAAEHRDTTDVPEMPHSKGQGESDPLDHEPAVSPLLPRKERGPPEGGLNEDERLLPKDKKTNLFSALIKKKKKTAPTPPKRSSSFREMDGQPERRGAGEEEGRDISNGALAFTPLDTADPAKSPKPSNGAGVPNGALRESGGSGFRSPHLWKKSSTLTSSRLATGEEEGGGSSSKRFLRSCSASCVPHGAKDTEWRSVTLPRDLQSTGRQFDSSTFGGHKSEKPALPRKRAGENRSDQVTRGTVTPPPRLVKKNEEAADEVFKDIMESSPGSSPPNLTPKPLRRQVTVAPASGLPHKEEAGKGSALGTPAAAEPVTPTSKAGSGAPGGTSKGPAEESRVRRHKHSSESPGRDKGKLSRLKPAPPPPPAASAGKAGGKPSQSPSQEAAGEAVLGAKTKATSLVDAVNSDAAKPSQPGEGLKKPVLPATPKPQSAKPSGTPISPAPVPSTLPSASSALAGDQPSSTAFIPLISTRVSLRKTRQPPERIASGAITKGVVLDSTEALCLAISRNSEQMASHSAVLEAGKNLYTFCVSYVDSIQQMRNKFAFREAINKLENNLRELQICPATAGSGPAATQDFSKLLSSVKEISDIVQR
Ras and Rab interactor 1/Tyrosine-protein kinase ABL1, sequence (Q13671 whole entry): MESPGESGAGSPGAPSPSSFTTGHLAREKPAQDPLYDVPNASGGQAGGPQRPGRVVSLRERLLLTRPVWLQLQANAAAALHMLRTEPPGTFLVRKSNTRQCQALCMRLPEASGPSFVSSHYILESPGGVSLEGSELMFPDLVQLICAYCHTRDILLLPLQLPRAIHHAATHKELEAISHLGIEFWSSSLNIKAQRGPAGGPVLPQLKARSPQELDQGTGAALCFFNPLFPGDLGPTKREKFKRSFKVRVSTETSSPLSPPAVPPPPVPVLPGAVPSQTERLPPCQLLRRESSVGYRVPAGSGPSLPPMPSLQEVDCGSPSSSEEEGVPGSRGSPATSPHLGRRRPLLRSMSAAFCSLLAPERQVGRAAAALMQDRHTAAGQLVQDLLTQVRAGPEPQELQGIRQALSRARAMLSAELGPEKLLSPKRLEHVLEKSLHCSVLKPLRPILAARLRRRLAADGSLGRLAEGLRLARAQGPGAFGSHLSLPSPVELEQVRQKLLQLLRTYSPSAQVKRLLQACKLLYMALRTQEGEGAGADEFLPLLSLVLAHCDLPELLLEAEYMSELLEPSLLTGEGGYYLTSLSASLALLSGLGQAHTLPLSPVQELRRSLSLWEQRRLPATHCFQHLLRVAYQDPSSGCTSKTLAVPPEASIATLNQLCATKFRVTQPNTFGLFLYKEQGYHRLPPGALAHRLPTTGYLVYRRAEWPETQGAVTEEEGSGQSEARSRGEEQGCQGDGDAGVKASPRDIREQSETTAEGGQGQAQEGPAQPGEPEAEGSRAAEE
Beta-2 adrenergic receptor, sequence (P07550 whole entry): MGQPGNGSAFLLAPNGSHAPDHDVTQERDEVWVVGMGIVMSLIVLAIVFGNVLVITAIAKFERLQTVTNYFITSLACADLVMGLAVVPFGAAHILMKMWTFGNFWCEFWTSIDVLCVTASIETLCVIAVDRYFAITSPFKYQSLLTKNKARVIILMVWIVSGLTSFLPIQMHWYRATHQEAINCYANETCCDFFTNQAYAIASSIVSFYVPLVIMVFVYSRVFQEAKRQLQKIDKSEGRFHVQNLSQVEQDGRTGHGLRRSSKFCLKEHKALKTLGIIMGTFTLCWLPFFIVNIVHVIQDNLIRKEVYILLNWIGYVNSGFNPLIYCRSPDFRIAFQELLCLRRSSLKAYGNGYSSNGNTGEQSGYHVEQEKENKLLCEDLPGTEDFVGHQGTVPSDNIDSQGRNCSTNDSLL
Genome polyprotein, sequence (P29990 2492-3391 limits assumed): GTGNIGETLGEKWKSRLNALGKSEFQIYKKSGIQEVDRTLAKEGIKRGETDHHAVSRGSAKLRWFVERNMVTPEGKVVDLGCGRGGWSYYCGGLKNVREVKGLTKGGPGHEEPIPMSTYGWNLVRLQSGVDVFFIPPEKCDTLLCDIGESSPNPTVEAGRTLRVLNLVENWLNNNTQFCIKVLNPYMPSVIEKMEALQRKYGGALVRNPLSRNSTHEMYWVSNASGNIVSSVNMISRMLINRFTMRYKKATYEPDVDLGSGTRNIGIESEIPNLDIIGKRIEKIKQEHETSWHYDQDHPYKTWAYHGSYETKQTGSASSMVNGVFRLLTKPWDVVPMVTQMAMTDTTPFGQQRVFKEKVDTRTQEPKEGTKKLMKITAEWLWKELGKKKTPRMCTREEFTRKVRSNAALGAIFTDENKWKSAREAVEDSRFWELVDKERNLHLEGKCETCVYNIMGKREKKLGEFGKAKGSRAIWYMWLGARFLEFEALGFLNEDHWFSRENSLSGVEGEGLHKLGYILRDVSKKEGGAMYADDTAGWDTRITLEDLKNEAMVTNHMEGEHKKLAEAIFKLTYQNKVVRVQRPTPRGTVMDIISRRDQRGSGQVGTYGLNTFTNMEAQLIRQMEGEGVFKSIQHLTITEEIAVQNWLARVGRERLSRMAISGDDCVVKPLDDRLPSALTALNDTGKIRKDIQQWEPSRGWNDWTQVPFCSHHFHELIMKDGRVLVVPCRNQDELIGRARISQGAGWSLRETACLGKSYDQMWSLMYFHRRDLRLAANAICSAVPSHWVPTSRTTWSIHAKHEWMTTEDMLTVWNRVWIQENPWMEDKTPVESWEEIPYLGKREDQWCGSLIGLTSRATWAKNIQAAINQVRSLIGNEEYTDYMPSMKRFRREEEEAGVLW
Cytochrome P450 3A4, sequence (P08684 whole entry): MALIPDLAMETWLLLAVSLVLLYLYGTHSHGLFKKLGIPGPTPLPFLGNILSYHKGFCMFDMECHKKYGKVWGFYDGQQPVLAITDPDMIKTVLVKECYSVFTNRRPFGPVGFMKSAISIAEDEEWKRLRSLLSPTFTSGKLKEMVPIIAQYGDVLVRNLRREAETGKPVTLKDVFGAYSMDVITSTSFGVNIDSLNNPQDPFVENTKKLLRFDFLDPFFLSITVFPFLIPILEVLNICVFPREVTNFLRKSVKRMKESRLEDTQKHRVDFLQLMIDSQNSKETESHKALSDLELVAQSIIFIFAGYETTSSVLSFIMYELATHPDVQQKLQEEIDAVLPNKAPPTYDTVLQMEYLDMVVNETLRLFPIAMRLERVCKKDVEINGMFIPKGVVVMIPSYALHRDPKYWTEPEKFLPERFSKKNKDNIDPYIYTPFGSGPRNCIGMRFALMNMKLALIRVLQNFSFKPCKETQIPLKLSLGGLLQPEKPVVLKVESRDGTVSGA

For `COC(=O)C/C=C\[C@@H](C)[C@@H](/C=N\OC[C@@H](O)COCc1ccco1)NS(=O)(=O)c1ccc(C)cc1`, the AC50 [1] was “inconclusive”.

In the case of `CC[C@]1(O)C[C@H]2CN(CCc3c([nH]c4ccccc34)[C@](C(=O)OC)(c3cc4c(cc3OC)N(C=O)[C@H]3[C@@](O)(C(=O)OC)[C@H](OC(C)=O)[C@@]5(CC)C=CCN6CC[C@]43[C@H]65)C2)C1`, the AC50 [1] is reported as “inconclusive”.

For `CC1CCc2[nH]c3ccc(C(=O)N(C)CC(=O)Nc4ccccc4C(F)(F)F)cc3c2C1` (configuration not stated), the IC50 [2] was > 80 µM (inactive).

For `CCOC(=O)CN1C(=O)NC2NC(=O)NC21` (configuration not stated), the IC50 [3] was 23.8 µM (inactive).

For `O=C(O)COc1ccccc1/C=C1\C(=O)NC(=O)N(CCC2=CCCCC2)C1=O`, the IC50 [4] was > 100 µM (active).

For `COCCc1ncc(CN2CCC(C(=O)Nc3ccc(-n4cccn4)cc3)CC2)cn1`, the EC50 [5] was 1.29 µM (active).

For `CC(=O)c1cc(NC(=O)c2cccc(C(F)(F)F)c2)c(=O)oc1/C=C/N(C)C`, the EC50 [6] was > 99 µM (inactive), the EC50 [7] was 22.2 µM (inactive) and the EC50 [8] was > 300 µM (inconclusive). The EC50 [9] was > 300 µM (not active), the EC50 [10] was 5.91 µM (active) and the AC50 [11] was 6.31 µM (inconclusive). The AC50 [12] was “inconclusive”.

For `O=C(NCCCn1ccnc1)C(=O)NCC(c1ccco1)N1CCN(c2ccc(F)cc2)CC1` (configuration not stated), the AC50 [13] was 99.3 µM (active).

In the case of `CCC1(CC)C(=O)C2=C3C1[C@H](C(=O)OC)C=C(C(=O)OC)C[C@H]3n1c(=O)n(-c3ccccc3)c(=O)n1[C@H]2C` (some centres not stated), the IC50 [3] is reported as 22.4 µM (inactive).

In the case of `COc1ccc(-c2cc(-c3ccc(Cl)cc3)c(C#N)c(SCC(=O)O)n2)cc1`, the IC50 [4] is reported as 50 µM (active).

In the case of `N#Cc1cc(-c2ccccc2)nnc1Oc1ccccc1Cl`, the EC50 [5] is reported as 0.173 µM (active).

For `CCc1cc(-c2n[nH]c(C)c2-c2nc3ccccc3n2C)c(O)cc1O`, the AC50 [14] was 40.6 µM (active) and the IC50 [2] was > 80 µM (inactive).

With `Cc1cc(C)n(-c2nc3c(c(=O)[nH]c(=O)n3C)n2CC(C)C)n1` the AC50 [1] was “inconclusive” and the AC50 [15] was “inconclusive”.

For `COC(=O)C/C=C\[C@@H](C)[C@@H](/C=N\OC[C@@H](O)[C@H]1O[C@H]2OC(C)(C)O[C@H]2[C@@H]1O)OC`, the AC50 [1] was “inconclusive” and the AC50 [11] was 5.01 µM (inconclusive).

In the case of `CCOC(=O)CCCCCC(=O)Nc1ccc2c(c1)C(=O)N([C@H](C)CO)C[C@H](C)[C@@H](CN(C)C(=O)Nc1ccccc1)OCCCC[C@@H](C)O2`, the IC50 [3] is reported as 30.8 µM (inactive).

For `Cc1ccc2nc(SCC(=O)N/N=C/c3ccco3)cc(C)c2c1`, the IC50 [2] was 41.8 µM (inactive).

With `C/C(Cn1nnc([N+](=O)[O-])n1)=N\NC(=O)c1ccc(Cl)c(Cl)c1` the EC50 [16] was 4.92 µM (active), the IC50 [17] was > 20 µM (inactive) and the EC50 [18] was 0.184 µM (active). The EC50 [19] was > 20 µM (inactive), the IC50 [20] was > 20 µM (inactive) and the IC50 [21] was > 20 µM (inactive). The IC50 [2] was > 80 µM (inactive), the IC50 [22] was 18.5 µM (active) and the EC50 [23] was > 60 µM (not active).

For `COc1ccc([N+](=O)[O-])cc1/C=N/NC(=O)CNC(=O)c1cccc(F)c1`, the IC50 [24] was 10.3 µM (active), the IC50 [25] was 6.76 µM (active) and the AC50 [13] was 87.2 µM (active).
